Patent publication US11674959B2, “Methods for identifying and preparing pharmaceutical agents for activating Tie1 and/or Tie2 receptors” (The Johns Hopkins University, priority 2017, dated 2023)

Experiments:
phospho-Tie2 (Y992) = experiment: Immunofluorescence of MEC monolayers for phospho-Tie2 (Y992); assay type: cell-based, human; details: 200 ng/ml Ang2 for fifteen minutes plus AXT107
Method: As such, subsequent experiments evaluate the effects of AXT107 at cell-cell junctions in MEC monolayers using immunofluorescence microscopy rather than at the EC-ECM interface.
Human dermal microvascular endothelial cells (Lonza) were maintained at 37° C. and 5% CO2 in EBM-2MV medium (Lonza) and used between passages two through seven. Where applicable, cells were serum starved in EBM-2 medium (Lonza) with no supplements. For FITC-Dextran permeability assays phenol red-free media were used to avoid auto-fluorescence. AXT107 were manufactured at New England Peptide by […], lyophilized, and dissolved in 100% DMSO.
(§1) Glass-bottomed, 96-well plates with half well size were coated with 10 μg/ml FN1 for two hours at 37° C. The FN1 solution was then removed by aspiration and the plate seeded with 4×10^3 MECs in EGM-2MV media. After twenty-four hours, the cells were washed once with dPBS containing Ca^2+ and Mg^2+ to remove dead cells and the cells were allowed to grow for an additional twenty-four hours. For three-hour duration treatments (i.e., VE-cadherin), cells were washed twice with dPBS containing Ca^2+ and Mg^2+ and serum starved in EBM-2 for ninety minutes. The media was then removed and the cells were treated for three hours with 100 μl of EBM-2 media containing 200 ng/ml Ang2 or PBS and varying concentrations of AXT107 or DMSO. […]

[1] = Self-assembly of peptide in media; assay type: physicochemical; details: added to media
α5β1 integrin = target: T1, α5β1 integrin (Homo sapiens, UniProt P05556+P08648); experiment: Immunoprecipitation of α5 integrin in Triton X-100 fractionated lysates, blotted for β1; assay type: cell-based; details: after AXT107 treatment; data not shown
T1 construct: host or cells: human dermal microvascular endothelial cells (MECs)
T1 sequence (P08648 42-894 limits assumed): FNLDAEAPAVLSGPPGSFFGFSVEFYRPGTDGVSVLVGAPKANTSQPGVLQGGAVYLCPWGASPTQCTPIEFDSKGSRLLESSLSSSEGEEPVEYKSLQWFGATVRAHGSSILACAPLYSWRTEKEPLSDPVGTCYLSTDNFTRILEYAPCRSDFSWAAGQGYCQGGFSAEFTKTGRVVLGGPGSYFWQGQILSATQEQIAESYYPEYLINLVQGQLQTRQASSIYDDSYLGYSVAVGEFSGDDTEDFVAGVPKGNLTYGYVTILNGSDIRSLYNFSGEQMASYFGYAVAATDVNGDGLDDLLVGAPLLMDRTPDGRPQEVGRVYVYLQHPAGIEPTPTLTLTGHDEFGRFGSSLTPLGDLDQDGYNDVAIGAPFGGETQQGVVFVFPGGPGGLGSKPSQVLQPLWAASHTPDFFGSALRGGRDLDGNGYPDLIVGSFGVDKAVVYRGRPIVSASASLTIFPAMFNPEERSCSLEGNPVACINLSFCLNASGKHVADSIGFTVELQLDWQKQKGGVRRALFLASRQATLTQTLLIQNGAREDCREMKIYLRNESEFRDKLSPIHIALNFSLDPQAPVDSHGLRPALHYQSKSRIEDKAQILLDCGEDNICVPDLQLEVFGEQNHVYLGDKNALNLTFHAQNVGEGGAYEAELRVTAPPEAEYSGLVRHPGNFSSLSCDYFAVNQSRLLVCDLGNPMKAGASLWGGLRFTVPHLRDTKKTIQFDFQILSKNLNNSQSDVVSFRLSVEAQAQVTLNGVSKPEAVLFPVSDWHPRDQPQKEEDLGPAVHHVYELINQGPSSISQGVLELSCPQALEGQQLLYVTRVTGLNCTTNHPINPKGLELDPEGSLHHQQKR
T1 sequence (P08648 895-1049 limits assumed): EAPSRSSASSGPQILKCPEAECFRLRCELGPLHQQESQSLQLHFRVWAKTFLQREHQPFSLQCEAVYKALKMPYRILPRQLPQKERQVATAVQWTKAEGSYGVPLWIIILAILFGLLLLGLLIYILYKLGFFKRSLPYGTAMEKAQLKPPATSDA
T1 sequence (P05556 21-798): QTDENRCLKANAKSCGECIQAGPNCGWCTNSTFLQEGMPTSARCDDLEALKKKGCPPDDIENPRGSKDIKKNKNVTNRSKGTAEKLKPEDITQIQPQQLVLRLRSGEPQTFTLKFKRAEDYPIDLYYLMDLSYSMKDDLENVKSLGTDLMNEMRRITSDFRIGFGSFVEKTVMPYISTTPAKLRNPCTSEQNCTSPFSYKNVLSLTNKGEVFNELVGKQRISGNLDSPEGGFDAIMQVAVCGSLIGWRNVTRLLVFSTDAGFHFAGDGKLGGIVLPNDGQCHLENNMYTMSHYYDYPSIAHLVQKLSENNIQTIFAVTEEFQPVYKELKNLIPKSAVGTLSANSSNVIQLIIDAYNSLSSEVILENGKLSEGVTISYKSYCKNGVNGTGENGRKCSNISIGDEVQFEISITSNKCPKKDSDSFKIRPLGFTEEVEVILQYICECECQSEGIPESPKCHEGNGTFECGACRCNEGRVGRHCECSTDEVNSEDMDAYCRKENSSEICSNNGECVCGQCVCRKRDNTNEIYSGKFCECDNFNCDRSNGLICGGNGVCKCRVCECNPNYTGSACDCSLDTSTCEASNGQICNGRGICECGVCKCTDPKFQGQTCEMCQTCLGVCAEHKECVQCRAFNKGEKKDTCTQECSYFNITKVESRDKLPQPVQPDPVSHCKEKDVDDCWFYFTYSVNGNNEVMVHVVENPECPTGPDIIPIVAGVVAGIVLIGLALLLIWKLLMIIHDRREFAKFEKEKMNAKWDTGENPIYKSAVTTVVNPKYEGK
Excerpt: Since β1 integrin is the only known β subunit to heterodimerize with the α5 integrin subunit, it unlikely that the α5 subunit, that was observed here in the insoluble fractions, originated from a heterodimeric integrin pair other than α5β1. Unfortunately, high background impaired the visualization of α5 integrin alone by immunofluorescence. Given the unexpected discovery that AXT107 dissociates the integrin heterodimer, this discovery was confirmed in several independent assays. […] Thus, interactions between Tie2 and heterodimerized α5β1 integrin appear to retain Tie2 at the EC-ECM interface.
The isolation of Triton X-100 soluble and insoluble fractions was performed using modifications to previously-described procedures (see, e.g., Lampugnani et al., J Cell Biol. 1995; 129(1):203-217). FN1-coated six-well plates were seeded with 2.5×10^6 cells and cultured for forty-eight hours, as described above. The cultures were then serum starved for ninety minutes in EBM-2 media, treated with 100 μM AXT107 or DMSO vehicle, and fifteen minutes with 1 mM sodium vanadate. The cells were then stimulated with either 100 ng/ml VEGFA, 400 ng/ml Ang2, or PBS for fifteen minutes. The plates were then transferred to ice and washed twice with cold dPBS containing Ca^2+ and Mg^2+ and twice with EBM-2 media. […] Samples were analyzed by western blot as described above. […]

MEC monolayers = experiment: Immunofluorescence of MEC monolayers for VE-cadherin and F-actin; assay type: cell-based, human; details: 200 ng/ml Ang2, increasing concentrations of AXT107
Method: The jaggedness of these junctions is related to the structure of actin within the cell.
as §1, with “DMSO. For fifteen minute-treated samples (i.e., phospho-Tie2), the cells were serum starved in EBM-2 media for 165 minutes, incubated for ninety minutes with varying concentrations of AXT107 or DMSO in EBM-2, and finally stimulated for fifteen minutes with 200 ng/ml Ang2 or PBS supplemented with peptide to retain the same concentrations. These times were chosen so that both treatment procedures would be completed at the same time. The cells were then washed twice with cold dPBS containing Ca^2+ and Mg^2+ and fixed in 10% neutral buffered formalin for fifteen minutes.” for “DMSO.”

integrin αvβ3 = integrin αvβ3 (Homo sapiens, UniProt P05106+P06756); details: Lee et al. 2014; Lima et al. 2017; cited from earlier work
integrin αvβ3, sequence (P06756 31-1048): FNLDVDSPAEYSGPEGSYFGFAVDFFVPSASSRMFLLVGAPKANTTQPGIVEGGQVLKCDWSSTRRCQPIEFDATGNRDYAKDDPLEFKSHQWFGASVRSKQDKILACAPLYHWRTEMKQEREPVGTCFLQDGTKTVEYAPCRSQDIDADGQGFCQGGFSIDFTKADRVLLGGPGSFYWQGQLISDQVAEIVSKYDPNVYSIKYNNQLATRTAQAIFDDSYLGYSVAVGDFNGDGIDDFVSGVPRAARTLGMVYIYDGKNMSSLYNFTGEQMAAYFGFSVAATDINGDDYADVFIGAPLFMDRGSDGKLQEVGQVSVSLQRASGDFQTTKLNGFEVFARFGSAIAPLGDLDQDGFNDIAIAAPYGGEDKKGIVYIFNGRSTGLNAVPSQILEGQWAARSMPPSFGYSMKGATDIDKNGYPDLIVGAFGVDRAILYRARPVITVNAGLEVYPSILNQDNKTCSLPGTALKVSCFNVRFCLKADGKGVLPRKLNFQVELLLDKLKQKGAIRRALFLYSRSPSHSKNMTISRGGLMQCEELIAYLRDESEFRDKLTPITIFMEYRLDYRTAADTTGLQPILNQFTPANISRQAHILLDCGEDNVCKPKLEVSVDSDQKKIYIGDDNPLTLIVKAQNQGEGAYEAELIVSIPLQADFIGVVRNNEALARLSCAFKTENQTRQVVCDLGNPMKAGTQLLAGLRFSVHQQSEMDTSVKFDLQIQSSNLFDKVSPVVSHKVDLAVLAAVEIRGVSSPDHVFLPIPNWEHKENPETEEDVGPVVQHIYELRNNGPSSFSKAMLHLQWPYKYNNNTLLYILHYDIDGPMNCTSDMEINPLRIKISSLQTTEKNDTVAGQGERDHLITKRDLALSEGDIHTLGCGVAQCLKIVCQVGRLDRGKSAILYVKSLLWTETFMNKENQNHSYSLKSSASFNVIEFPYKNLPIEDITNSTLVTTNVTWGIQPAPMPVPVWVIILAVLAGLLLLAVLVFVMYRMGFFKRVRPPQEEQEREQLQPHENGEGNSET
integrin αvβ3, sequence (P05106 27-788): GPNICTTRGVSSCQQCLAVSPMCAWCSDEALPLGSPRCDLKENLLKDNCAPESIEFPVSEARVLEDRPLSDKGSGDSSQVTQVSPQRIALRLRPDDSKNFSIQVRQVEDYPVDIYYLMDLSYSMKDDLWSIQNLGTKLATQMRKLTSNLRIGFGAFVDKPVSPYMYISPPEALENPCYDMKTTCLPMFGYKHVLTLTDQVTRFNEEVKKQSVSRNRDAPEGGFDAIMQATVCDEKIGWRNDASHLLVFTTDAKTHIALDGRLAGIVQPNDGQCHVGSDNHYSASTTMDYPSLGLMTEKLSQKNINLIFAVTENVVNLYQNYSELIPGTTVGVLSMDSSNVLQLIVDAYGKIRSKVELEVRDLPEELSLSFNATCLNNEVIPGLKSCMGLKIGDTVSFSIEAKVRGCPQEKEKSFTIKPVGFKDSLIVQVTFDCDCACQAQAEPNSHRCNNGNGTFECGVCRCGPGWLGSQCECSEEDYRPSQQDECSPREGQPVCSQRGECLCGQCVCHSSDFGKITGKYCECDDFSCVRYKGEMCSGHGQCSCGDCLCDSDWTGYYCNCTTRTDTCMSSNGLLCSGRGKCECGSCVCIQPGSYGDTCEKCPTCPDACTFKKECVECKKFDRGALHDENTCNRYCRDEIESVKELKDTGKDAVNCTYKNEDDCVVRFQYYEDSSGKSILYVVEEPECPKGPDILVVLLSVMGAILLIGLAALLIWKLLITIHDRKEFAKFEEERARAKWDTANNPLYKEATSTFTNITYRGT

LRRFSTAPFAFIDINDVINF [AXT107]
phospho-Tie2 fluorescence intensity and distribution (phospho-Tie2 (Y992)): increased overall fluorescence intensity and redistributed phospho-Tie2 along cell-cell junctions and into large clusters
Self-assembly in media [1]: self-assemble into peptide complexes when added to media
α5-β1 interaction by fraction after α5 immunoprecipitation (α5β1 integrin): interactions with β1 were only found in the soluble fractions
Actin fiber arrangement (MEC monolayers): became more cortical with increasing concentrations of AXT107
Distribution of VE-cadherin at junctions (MEC monolayers): became progressively smoother with increasing concentrations of AXT107
Binding to integrin αvβ3 (integrin αvβ3): binds tightly
